From article PMC1925065, “Functional characterization of two melanocortin (MC) receptors in lamprey showing orthology to the MC1 and MC4 receptor subtypes” (BMC Evolutionary Biology, 2007)
Like-named read-outs stand apart in the source and are kept apart here. Bridge positions count the residues as written; N and C are the ends. Square brackets hold non-standard residues; d marks the D form. Peptide text beside a SMILES is read from it. d2Nal = N[C@H](Cc1ccc2ccccc2c1)C(=O)O; Nle = CCCC[C@H](N)C(=O)O

How the values were obtained:
[1] = target: human MC4; conditions: mean ± SEM, cited from earlier work; for Ki: competition
[2] = target: T1, lamprey MCa receptor (Lampetra fluviatilis, UniProt A6XB56); experiment: Radioligand binding assay (saturation and competition, [125I] NDP-MSH), lamprey MCa; set-up: species or system river lamprey; conditions: for affinity for lamprey MCa compared to the human MC1 and MC3 receptors: p < 0.01 for α-MSH, γ-MSH, ACTH(1–39)
T1 sequence (A6XB56 1-341): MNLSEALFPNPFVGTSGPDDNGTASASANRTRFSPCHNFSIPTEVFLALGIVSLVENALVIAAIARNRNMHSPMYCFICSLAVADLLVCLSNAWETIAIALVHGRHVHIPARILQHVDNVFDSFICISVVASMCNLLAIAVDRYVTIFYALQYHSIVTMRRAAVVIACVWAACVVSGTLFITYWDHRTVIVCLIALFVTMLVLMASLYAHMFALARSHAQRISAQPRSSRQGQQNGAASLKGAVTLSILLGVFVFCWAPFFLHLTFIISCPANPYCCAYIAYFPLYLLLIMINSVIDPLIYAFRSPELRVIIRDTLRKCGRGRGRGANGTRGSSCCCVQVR
Description: HEK-293 (human embryonic kidney) cells with Epstein-Barr nuclear antigen (EBNA) grown to 50–70% confluence were transfected with 10 μg of the construct using FuGENE-6 Transfection Reagent (Roche, Sweden) according to the manufacturers' instruction. The cells were grown in Dulbeccos Modified Eagle Media and F-12 Nutrient Mixture (D-MEM/F-12) (1:1) with GlutaMAX I containing 10% foetal bovine serum, 100 u/ml penicillin, 100 μg/ml streptomycin, 2.5 ug/ml amphotericin B, and 250 μg/ml geneticin G-418 (Invitrogen); in humidified atmosphere of 95% air and 5% CO2 at 37°C. Semi-stable cell lines, expressing target receptor, were obtained by selecting for growth in the presence of 100 μg/ml hygromycin B (Invitrogen), first added 24 hours after transfection.
HEK-293 EBNA cells expressing MC receptors were harvested from plate and resuspended in binding buffer composed of 25 mM HEPES, 2.5 mM CaCl2, 1 mM MgCl2 and 0.2% bacitracin, pH adjusted to 7.4. To obtain the membranes, cells were mechanically homogenized with Ultra Turrax. Cell suspensions were centrifuged for 3 min at 190 g and membranes were collected from the supernatant by centrifugation for 15 min at 20000 g. The pellet was resuspended in binding buffer. The binding was performed in a final volume of 100 μl for 2 h at room temperature. Saturation experiments were carried out with serial dilutions of [^125I] […] Competition experiments were performed with constant 0.6 nM concentration of [^125I] […] The membranes were collected by filtration on Glass Fibre filters, Filtermat A (Perkin Elmer, USA), using a TOMTEC Mach III cell harvester (Orange, CT, USA). The filters were washed with 5 ml per well of 50 mM Tris HCl (pH 7.4) and dried at 50°C. MeltiLex A scintillator sheets (Perkin Elmer, USA) were melted on dried filters and radioactivity was counted with an automatic Microbeta counter 1450 (Perkin Elmer). Binding assays were performed in duplicate with at least three independent experiments. […] The results were analysed with Prism 3.0 software package (GraphPad, USA). Binding affinities were compared with one-way ANOVA Tukey's post-hoc tests.

[3] = target: human MC1; conditions: mean ± SEM, cited from earlier work; for Ki: competition
[4] = target: human MC5; conditions: mean ± SEM, cited from earlier work; for Ki: competition
[5] = target: human MC3; conditions: mean ± SEM, cited from earlier work; for Ki: competition
[6] = tested on: Non-transfected cells (HEK-293 EBNA); experiment: Radioligand binding, non-transfected cells; set-up: species or system human; conditions: [125I] NDP-MSH
Description: HEK-293 EBNA cells expressing MC receptors were harvested from plate and resuspended in binding buffer composed of 25 mM HEPES, 2.5 mM CaCl2, 1 mM MgCl2 and 0.2% bacitracin, pH adjusted to 7.4. To obtain the membranes, cells were mechanically homogenized with Ultra Turrax. Cell suspensions were centrifuged for 3 min at 190 g and membranes were collected from the supernatant by centrifugation for 15 min at 20000 g. The pellet was resuspended in binding buffer. The binding was performed in a final volume of 100 μl for 2 h at room temperature. Saturation experiments were carried out with serial dilutions of [^125I] NDP-MSH { [Nle^4, D-Phe^7]α-MSH}, labelled by the Chloramine-T method. Non-specific binding was determined in the presence of 1 μM unlabeled NDP-MSH. Competition experiments were performed with constant 0.6 nM concentration of [^125I] NDP-MSH and serial dilutions of competing unlabelled human ligands: NDP-MSH, α-MSH, β-MSH, γ1-MSH, ACTH (1–17) ACTH (1–24) ACTH (1–39), MTII, HS024) (Neosystem, France) and lamprey ligands: MSH-A, MSH-B, ACTH(1–31). […] MeltiLex A scintillator sheets (Perkin Elmer, USA) were melted on dried filters and radioactivity was counted with an automatic Microbeta counter 1450 (Perkin Elmer). […] The results were analysed with Prism 3.0 software package (GraphPad, USA). […]

[7] = comparison with previously published human values
[8] = saturation, [125I] NDP-MSH, ref [42]

CSCC[C@H](NC(=O)[C@H](CO)NC(=O)[C@H](Cc1ccc(O)cc1)NC(=O)[C@@H](N)CO)C(=O)N[C@@H](CCC(=O)O)C(=O)N[C@@H](Cc1c[nH]cn1)C(=O)N[C@@H](Cc1ccccc1)C(=O)N[C@@H](CCCNC(=N)N)C(=O)N[C@@H](Cc1c[nH]c2ccccc12)C(=O)NCC(=O)N[C@@H](CCCCN)C(=O)N1CCC[C@H]1C(=O)N[C@H](C(=O)NCC(=O)N[C@@H](CCCCN)C(=O)N[C@@H](CCCCN)C(=O)N[C@@H](CCCNC(=N)N)C(=O)O)C(C)C [ACTH (1–17)]
Ki ([1]; ref [40]): 419 ± 62 nM | Ki [2]: 51.1 ± 3.2 nM | affinity for lamprey MCa compared to the human MC4 and MC5 receptors [2, 7]: clearly higher affinities | affinity for lamprey MCa compared to the human MC1 and MC3 receptors [2, 7]: clearly lower affinities | Ki ([3]; ref [40]): 0.23 ± 0.061 nM | Ki ([4]; ref [40]): 4.24 ± 1.2 µM | Ki ([5]; ref [40]): 14 ± 4.5 nM

CSCC[C@H](NC(=O)[C@H](CO)NC(=O)[C@H](Cc1ccc(O)cc1)NC(=O)[C@@H](N)CO)C(=O)N[C@@H](CCC(=O)O)C(=O)N[C@@H](Cc1cnc[nH]1)C(=O)N[C@@H](Cc1ccccc1)C(=O)N[C@@H](CCCNC(=N)N)C(=O)N[C@@H](Cc1c[nH]c2ccccc12)C(=O)NCC(=O)N[C@@H](CCCCN)C(=O)N1CCC[C@H]1C(=O)N[C@H](C(=O)NCC(=O)N[C@@H](CCCCN)C(=O)N[C@@H](CCCCN)C(=O)N[C@@H](CCCNC(=N)N)C(=O)N[C@@H](CCCNC(=N)N)C(=O)N1CCC[C@H]1C(=O)N[C@H](C(=O)N[C@@H](CCCCN)C(=O)N[C@H](C(=O)N[C@@H](Cc1ccc(O)cc1)C(=O)N1CCC[C@H]1C(=O)N[C@@H](CC(N)=O)C(=O)NCC(=O)N[C@@H](C)C(=O)N[C@@H](CCC(=O)O)C(=O)N[C@@H](CC(=O)O)C(=O)N[C@@H](CCC(=O)O)C(=O)N[C@@H](CO)C(=O)N[C@@H](C)C(=O)N[C@@H](CCC(=O)O)C(=O)N[C@@H](C)C(=O)N[C@@H](Cc1ccccc1)C(=O)N1CCC[C@H]1C(=O)N[C@@H](CC(C)C)C(=O)N[C@@H](CCC(=O)O)C(=O)N[C@@H](Cc1ccccc1)C(=O)O)C(C)C)C(C)C)C(C)C [ACTH (1–39), adrenocorticotropic hormone] (H-SYSMEHFRWGKPVGKKRRPVKVYPNGAEDESAEAFPLEF-OH)
Ki [2]: 291 ± 20 nM

CSCC[C@H](NC(=O)[C@H](CO)NC(=O)[C@H](Cc1ccc(O)cc1)NC(=O)[C@@H](N)CO)C(=O)N[C@@H](CCC(=O)O)C(=O)N[C@@H](Cc1c[nH]cn1)C(=O)N[C@@H](Cc1ccccc1)C(=O)N[C@@H](CCCNC(=N)N)C(=O)N[C@@H](Cc1c[nH]c2ccccc12)C(=O)NCC(=O)N[C@@H](CCCCN)C(=O)N1CCC[C@H]1C(=O)N[C@H](C(=O)NCC(=O)N[C@@H](CCCCN)C(=O)N[C@@H](CCCCN)C(=O)N[C@@H](CCCNC(=N)N)C(=O)N[C@@H](CCCNC(=N)N)C(=O)N1CCC[C@H]1C(=O)N[C@H](C(=O)N[C@@H](CCCCN)C(=O)N[C@H](C(=O)N[C@@H](Cc1ccc(O)cc1)C(=O)N1CCC[C@H]1C(=O)N[C@@H](CC(N)=O)C(=O)NCC(=O)N[C@@H](C)C(=O)N[C@@H](CCC(=O)O)C(=O)N[C@@H](CC(=O)O)C(=O)N[C@@H](CCC(=O)O)C(=O)N[C@@H](CO)C(=O)N[C@@H](C)C(=O)N[C@@H](CCC(=O)O)C(=O)N[C@@H](C)C(=O)N[C@@H](Cc1ccccc1)C(=O)N1CCC[C@H]1C(=O)N[C@@H](CC(C)C)C(=O)N[C@@H](CCC(=O)O)C(=O)N[C@@H](Cc1ccccc1)C(=O)O)C(C)C)C(C)C)C(C)C [ACTH (1–39), adrenocorticotropic hormone] (H-SYSMEHFRWGKPVGKKRRPVKVYPNGAEDESAEAFPLEF-OH; N-terminus and C-terminus assumed)
Ki ([1]; ref [40]): 2170 ± 120 nM | affinity for lamprey MCa compared to the human MC4 and MC5 receptors [2, 7]: clearly higher affinities | affinity for lamprey MCa compared to the human MC1 and MC3 receptors [2, 7]: clearly lower affinities | Ki ([3]; ref [40]): 3.95 ± 0.67 nM | Ki ([4]; ref [40]): 4.92 ± 0.61 µM | Ki ([5]; ref [40]): 135 ± 22 nM

CCCC[C@@H]1NC(=O)[C@@H](NC(C)=O)CSSC[C@@H](C(N)=O)NC(=O)CNC(=O)[C@H](Cc2c[nH]c3ccccc23)NC(=O)[C@H](CCCNC(=N)N)NC(=O)[C@@H](Cc2ccc3ccccc3c2)NC(=O)[C@H](Cc2c[nH]cn2)NC(=O)[C@H](CCCNC(=N)N)NC1=O [HS024] (Ac-C[Nle]RH[d2Nal]RWGC-NH2; disulfide 1-9 (inferred); N-terminus and C-terminus assumed)
Ki ([1]; ref [42]): 0.341 ± 0.089 nM | Ki [2]: 72.5 ± 1.4 nM | affinity for lamprey MCa compared to the human MC1, MC3, MC4 and MC5 receptors [2, 7]: clearly lower affinities | Ki ([3]; ref [41]): 18.6 ± 3.3 nM | Ki ([4]; ref [41]): 0.00329 ± 0.00115 µM | Ki ([5]; ref [42]): 15.1 ± 3 nM

CCCC[C@H](NC(=O)[C@H](CO)NC(=O)[C@H](Cc1ccc(O)c(I)c1)NC(=O)[C@H](CO)NC(C)=O)C(=O)N[C@@H](CCC(=O)O)C(=O)N[C@@H](Cc1c[nH]cn1)C(=O)N[C@H](Cc1ccccc1)C(=O)N[C@@H](CCCNC(=N)N)C(=O)N[C@@H](Cc1c[nH]c2ccccc12)C(=O)NCC(=O)N[C@@H](CCCCN)C(=O)N1CCC[C@H]1C(=O)N[C@H](C(N)=O)C(C)C [[^125I] NDP-MSH, [Nle^4, D-Phe^7]α-MSH]
Kd [1, 8]: 1.78 ± 0.36 nM | specific binding, non-transfected cells [6]: did not show any specific binding | Kd ([2]; read-out: Kd (mean ± SEM) from saturation curves, lamprey MCa, HEK-293 EBNA membranes, pH 7.4, 2 h, room temperature, non-specific binding with unlabelled NDP-MSH, mean ± SEM, duplicate, at least three independent experiments): 2.46 ± 0.68 nM | Kd ([3]; saturation, [125I] NDP-MSH, ref [38]): 0.109 ± 0.062 nM | Kd ([4]; saturation, [125I] NDP-MSH, ref [39]): 5.05 ± 1 nM | Kd [5, 8]: 0.412 ± 0.121 nM

CSCC[C@H](NC(=O)[C@@H](NC(=O)[C@@H](N)Cc1ccc(O)cc1)C(C)C)C(=O)NCC(=O)N[C@@H](Cc1c[nH]cn1)C(=O)N[C@@H](Cc1ccccc1)C(=O)N[C@@H](CCCNC(=N)N)C(=O)N[C@@H](Cc1c[nH]c2ccccc12)C(=O)N[C@@H](CC(=O)O)C(=O)N[C@@H](CCCNC(=N)N)C(=O)N[C@@H](Cc1ccccc1)C(N)=O [γ1-MSH]
Ki ([1]; ref [42]): 51800 ± 12000 nM | Ki [2]: 684 ± 7 nM | affinity for lamprey MCa compared to the human MC4 and MC5 receptors [2, 7]: clearly higher affinities | affinity for lamprey MCa compared to the human MC1 and MC3 receptors [2, 7]: clearly lower affinities | Ki ([3]; ref [39]): 2.68 ± 0.35 nM | Ki ([4]; ref [39]): 42.6 ± 6.6 µM | Ki ([5]; ref [42]): 7.45 ± 2.55 nM

β-melanocyte stimulating hormone [β-MSH]
Ki ([1]; ref [42]): 387 ± 208 nM | affinity for lamprey MCa compared to the human MC4 and MC5 receptors [2, 7]: clearly higher affinities | affinity for lamprey MCa compared to the human MC1 and MC3 receptors [2, 7]: clearly lower affinities | Ki ([3]; ref [38]): 2.53 ± 0.93 nM | Ki ([4]; ref [39]): 14.4 ± 1.67 µM | Ki ([5]; ref [42]): 15.1 ± 3.4 nM
